Data reported in PubChem BioAssay AID1963968 (Molecular Pharmacology Branch, DTP, NCI, 2024).

System: 945468-187-T-J3-PDC spheroids with HUVEC/MSC, viability
Experiment: Anticancer human tumor 945468-187-T-J3-PDC patient-derived rectal carcinoma cell line growth inhibition [PI3K]
Details: for IC50: curve of first compound; for viability, T/C: stronger effect = lower value
Outline: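 High-throughput combination screen: PI3K inhibitors crossed with targeted small molecules on complex spheroids of tumor cells, HUVEC and MSCs at 37 degrees C, 5% CO2. Top concentration was at or near clinical Cmax (otherwise 10 microM), with half-log decrements.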

[1] = second compound 0.0316 µM, first compound 0.000316 µM
[2] = second compound 0.0316 µM, first compound 0.001 µM
[3] = second compound 0.0316 µM, first compound 0.00316 µM
[4] = second compound 0.0316 µM, first compound 0.01 µM
[5] = second compound 0.0316 µM, first compound 0.0316 µM
[6] = second compound 0.0316 µM, first compound 0.1 µM
[7] = second compound 0.1 µM, first compound 0.000316 µM
[8] = second compound 0.1 µM, first compound 0.001 µM
[9] = second compound 0.1 µM, first compound 0.00316 µM
[10] = second compound 0.1 µM, first compound 0.01 µM
[11] = second compound 0.1 µM, first compound 0.0316 µM
[12] = second compound 0.1 µM, first compound 0.1 µM
[13] = second compound 0.316 µM, first compound 0.000316 µM
[14] = second compound 0.316 µM, first compound 0.001 µM
[15] = second compound 0.316 µM, first compound 0.00316 µM
[16] = second compound 0.316 µM, first compound 0.01 µM
[17] = second compound 0.316 µM, first compound 0.0316 µM
[18] = second compound 0.316 µM, first compound 0.1 µM
[19] = second compound 1 µM, first compound 0.000316 µM
[20] = second compound 1 µM, first compound 0.001 µM
[21] = second compound 1 µM, first compound 0.00316 µM
[22] = second compound 1 µM, first compound 0.01 µM
[23] = second compound 1 µM, first compound 0.0316 µM
[24] = second compound 1 µM, first compound 0.1 µM
[25] = second compound 3.16 µM, first compound 0.000316 µM
[26] = second compound 3.16 µM, first compound 0.001 µM
[27] = second compound 3.16 µM, first compound 0.00316 µM
[28] = second compound 3.16 µM, first compound 0.01 µM
[29] = second compound 3.16 µM, first compound 0.0316 µM
[30] = second compound 3.16 µM, first compound 0.1 µM
[31] = second compound 10 µM, first compound 0.000316 µM
[32] = second compound 10 µM, first compound 0.001 µM
[33] = second compound 10 µM, first compound 0.00316 µM
[34] = second compound 10 µM, first compound 0.01 µM
[35] = second compound 10 µM, first compound 0.0316 µM
[36] = second compound 10 µM, first compound 0.1 µM
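Also: spheroids exposed to agents for 7 days before viability read.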
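For viability, T/C in this document: 100% = DMSO vehicle control viability.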

For `CC(=O)c1c(C)c2cnc(Nc3ccc(N4CCNCC4)cn3)nc2n(C2CCCC2)c1=O` + CC(Nc1ncnc2nc[nH]c12)c1cc2cccc(Cl)c2c(=O)n1-c1ccccc1, the IC50 (second compound 0.0316 µM) was greater than 100 nM, the IC50 (second compound 0.1 µM) was greater than 100 nM and the IC50 (second compound 0.316 µM) was greater than 100 nM. For the same compound, the IC50 (second compound 1 µM) was greater than 100 nM, the IC50 (second compound 3.16 µM) was greater than 100 nM and the IC50 (second compound 10 µM) was greater than 100 nM. It also gave a viability, T/C [1] of 102%, a viability, T/C [2] of 87.6% and a viability, T/C [3] of 106%. It also gave a viability, T/C [4] of 92.5%, a viability, T/C [5] of 96.6% and a viability, T/C [6] of 92.6%. The viability, T/C [7] was 91.4%, the viability, T/C [8] was 100% and the viability, T/C [9] was 87.5%. The viability, T/C [10] was 91.4%, the viability, T/C [11] was 99.1% and the viability, T/C [12] was 113%. It also gave a viability, T/C [13] of 111%, a viability, T/C [14] of 89.2% and a viability, T/C [15] of 94.1%. The viability, T/C [16] was 94.5%, the viability, T/C [17] was 99.3% and the viability, T/C [18] was 98%. The viability, T/C [19] was 98.3%, the viability, T/C [20] was 93.5% and the viability, T/C [21] was 86.5%. For the same compound, the viability, T/C [22] was 93.2%, the viability, T/C [23] was 102% and the viability, T/C [24] was 89.4%. It also gave a viability, T/C [25] of 95.2%, a viability, T/C [26] of 95% and a viability, T/C [27] of 99.1%. The viability, T/C [28] was 98.6%, the viability, T/C [29] was 105% and the viability, T/C [30] was 93.8%. The viability, T/C [31] was 106%, the viability, T/C [32] was 107% and the viability, T/C [33] was 106%. The viability, T/C [34] was 108%, the viability, T/C [35] was 106% and the viability, T/C [36] was 103%.

`CC(C)n1nc(-c2ccc3oc(N)nc3c2)c2c(N)ncnc21` + CC(Nc1ncnc2nc[nH]c12)c1cc2cccc(Cl)c2c(=O)n1-c1ccccc1 was tested, and the IC50 (second compound 0.0316 µM) was greater than 100 nM, the IC50 (second compound 0.1 µM) was greater than 100 nM and the IC50 (second compound 0.316 µM) was greater than 100 nM. For the same compound, the IC50 (second compound 1 µM) was greater than 100 nM, the IC50 (second compound 3.16 µM) was 87.7 nM and the IC50 (second compound 10 µM) was 70.7 nM. It also gave a viability, T/C [1] of 105%, a viability, T/C [2] of 101% and a viability, T/C [3] of 95%. It also gave a viability, T/C [4] of 99.1%, a viability, T/C [5] of 93.2% and a viability, T/C [6] of 62.2%. For the same compound, the viability, T/C [7] was 122%, the viability, T/C [8] was 103% and the viability, T/C [9] was 101%. It also gave a viability, T/C [10] of 91.9%, a viability, T/C [11] of 105% and a viability, T/C [12] of 50.5%. For the same compound, the viability, T/C [13] was 99%, the viability, T/C [14] was 89.1% and the viability, T/C [15] was 102%. The viability, T/C [16] was 97.1%, the viability, T/C [17] was 104% and the viability, T/C [18] was 59.5%. It also gave a viability, T/C [19] of 99.7%, a viability, T/C [20] of 98.4% and a viability, T/C [21] of 98.3%. The viability, T/C [22] was 112%, the viability, T/C [23] was 96% and the viability, T/C [24] was 51.1%. For the same compound, the viability, T/C [25] was 104%, the viability, T/C [26] was 89.8% and the viability, T/C [27] was 99.1%. It also gave a viability, T/C [28] of 101%, a viability, T/C [29] of 103% and a viability, T/C [30] of 43.6%. The viability, T/C [31] was 103%, the viability, T/C [32] was 96.9% and the viability, T/C [33] was 93.5%. The viability, T/C [34] was 87%, the viability, T/C [35] was 89.3% and the viability, T/C [36] was 33.7%.

With `CCCS(=O)(=O)Nc1ccc(F)c(C(=O)c2c[nH]c3ncc(-c4ccc(Cl)cc4)cc23)c1F` + CC(Nc1ncnc2nc[nH]c12)c1cc2cccc(Cl)c2c(=O)n1-c1ccccc1 the IC50 (second compound 0.0316 µM) was 8200 nM, the IC50 (second compound 0.1 µM) was greater than 10000 nM and the IC50 (second compound 0.316 µM) was greater than 10000 nM. For the same compound, the IC50 (second compound 1 µM) was greater than 10000 nM, the IC50 (second compound 3.16 µM) was greater than 10000 nM and the IC50 (second compound 10 µM) was greater than 10000 nM. It also gave a viability, T/C [5] of 100%, a viability, T/C [6] of 96.7% and a viability, T/C (second compound 0.0316 µM, first compound 0.316 µM) of 103%. The viability, T/C (second compound 0.0316 µM, first compound 1 µM) was 101%, the viability, T/C (second compound 0.0316 µM, first compound 3.16 µM) was 99.2% and the viability, T/C (second compound 0.0316 µM, first compound 10 µM) was 39.8%. The viability, T/C [11] was 104%, the viability, T/C [12] was 95.8% and the viability, T/C (second compound 0.1 µM, first compound 0.316 µM) was 93.8%. It also gave a viability, T/C (second compound 0.1 µM, first compound 1 µM) of 91.3%, a viability, T/C (second compound 0.1 µM, first compound 3.16 µM) of 111% and a viability, T/C (second compound 0.1 µM, first compound 10 µM) of 77.9%. It also gave a viability, T/C [17] of 102%, a viability, T/C [18] of 101% and a viability, T/C (second compound 0.316 µM, first compound 0.316 µM) of 91.7%. For the same compound, the viability, T/C (second compound 0.316 µM, first compound 1 µM) was 99.3%, the viability, T/C (second compound 0.316 µM, first compound 3.16 µM) was 98.3% and the viability, T/C (second compound 0.316 µM, first compound 10 µM) was 60.6%. The viability, T/C [23] was 88.6%, the viability, T/C [24] was 92.8% and the viability, T/C (second compound 1 µM, first compound 0.316 µM) was 89.4%. The viability, T/C (second compound 1 µM, first compound 1 µM) was 92%, the viability, T/C (second compound 1 µM, first compound 3.16 µM) was 101% and the viability, T/C (second compound 1 µM, first compound 10 µM) was 68.7%. The viability, T/C [29] was 92.6%, the viability, T/C [30] was 91.3% and the viability, T/C (second compound 3.16 µM, first compound 0.316 µM) was 102%. It also gave a viability, T/C (second compound 3.16 µM, first compound 1 µM) of 105%, a viability, T/C (second compound 3.16 µM, first compound 3.16 µM) of 105% and a viability, T/C (second compound 3.16 µM, first compound 10 µM) of 56.5%. It also gave a viability, T/C [35] of 91.3%, a viability, T/C [36] of 99.4% and a viability, T/C (second compound 10 µM, first compound 0.316 µM) of 94.8%. For the same compound, the viability, T/C (second compound 10 µM, first compound 1 µM) was 92.2%, the viability, T/C (second compound 10 µM, first compound 3.16 µM) was 105% and the viability, T/C (second compound 10 µM, first compound 10 µM) was 94.1%.
